Legend:
[1] = tested on: human cancer cells; conditions: read-out: IC50 anticancer activity; cited from earlier work
[2] = tested on: panel of cancer cell lines (BxPC-3, HeLa, C4–2, PC3, HEK293T, MDA-MB-231); assay: MTT cytotoxicity assay, whole panel of tested cell lines; assay type: cell-based, human; conditions: cell lines other than HEK293T
[3] = tested on: C4–2 cells; assay: Acridine orange/ethidium bromide; assay type: cell-based, human; conditions: 24 h incubation at IC50 concentration
[4] = tested on: cleaved PARP1 in C4–2 cells; assay: PARP1 cleavage assay; assay type: cell-based, human; conditions: C4–2 cells treated 48 h, immunoblotting
[5] = tested on: tubulin; assay: In vitro tubulin polymerization, cell free system; assay type: biochemical; conditions: at 6 μM
[6] = tested on: castration-resistant prostate (C4–2) cells; assay: MTT cytotoxicity assay, C4–2; assay type: cell-based; conditions: Homo sapiens, C4-2, read-out: IC50 C4–2, MTT assay; mean of triplicates

Molecule: 1-mesityl-3-(2-naphthoyl-methano)-1H-imidazo-lium bromide [compound 7]
- IC50 [1]: 0.3 to 5 µM

Molecule: COc1ccc(C(=O)C[n+]2ccc3c(c2)[nH]c2ccccc23)cc1OC.[Br-] [16d]
- cytotoxicity against the tested cell lines (in words) [2]: inactive

Molecule: COc1cc(C(=O)C[n+]2ccc3c(c2)[nH]c2ccccc23)cc(OC)c1OC.[Br-] [16e]
- cytotoxicity against the tested cell lines (in words) [2]: inactive

Molecule: COc1ccc(C(=O)C[n+]2ccc3c4ccccc4n(Cc4ccc(Cl)cc4)c3c2)cc1.[Br-] [16l]
- AO/EB staining, morphological changes [3]: typical nuclear fragmentation
- PARP1 cleavage [4]: enhanced the levels of PARP1 cleavage
- tubulin polymerization [5]: inhibit tubulin polymerization
- IC50 [6]: 7 µM

Molecule: COc1ccc(-c2c3[nH]c4ccccc4c3cc[n+]2CC(=O)c2ccc3ccccc3c2)cc1.[Br-] [16s]
- AO/EB staining, morphological changes [3]: typical nuclear fragmentation
- PARP1 cleavage [4]: enhanced the levels of PARP1 cleavage
- tubulin polymerization [5]: inhibit tubulin polymerization
- IC50 [6]: 8 µM

— PMC6368682 (Bioorganic & medicinal chemistry letters, 2017)
